Data: US20040180082A1, “Submicron-liposome containing triterpenoid and a method for preparing the same” (AMOREPACIFIC CORPORATION, priority 2002, published 2004)

Experiment: Wide angle X-ray diffraction of frozen-dried liposome
Type: physicochemical
Settings: 2θ value at maximum diffraction no more increasing; FIGS. 2 and 3
Procedure: The structures and the crystallinities (crystalline property) of the liposome were analyzed with powder XRD equipped with wide-angle diffractometer (Rigaku/USA, D/max-RB) using Cu-Kα (λ=1.54 Å) ray. The oleanolic acid (OA) and liposome prepared in Examples 1, 3, 4, 5 and 6 and frozen-dried were analyzed by X-ray diffraction in wide-angle (θ=2-50°), and the structures of hydrocarbon chains and the molecular distances of oleanolic acid (OA) crystals were determined by the result of the X-ray diffraction. […] Diffractions in a wide range of near 20° were observed because lipids formed smectic (lamellar) liquid-crystal phase, which correspond to the distances between lipid molecules.

content of OA at which OA is saturated in the bi-layer of the liposome: 25.4 mole %
SMILES: CC1(C)CC[C@]2(C(=O)O)CC[C@]3(C)C(=CC[C@@H]4[C@@]5(C)CC[C@H](O)C(C)(C)[C@@H]5CC[C@]43C)[C@@H]2C1 [OA, oleanolic acid]
